# According to patent publication US6686334B2, “Use of inhibitors of protein kinase C epsilon to treat pain” (Regents of the University of California, priority 1998, dated 2004):
# “Also recorded” adds a separate entry of the source. Read-outs that look alike come from different tables or passages of the source.
# Legend:
# [1] = tested on: wild-type mice; assay: von Frey hair paw withdrawal frequency in mice; assay type: in vivo, mouse; details: 100 ng intraplantar, wild-type mice, 4, 6.9 or 14.8 grams
# Method: Mechanical, thermal and chemical nociception were evaluated in wild-type and PKCε-mutant mice. For both wild-type (n=8) and PKCε-mutant (n=8) mice, the basal mechanical nociceptive threshold was measured as the frequency at which mice withdrew their paws after being poked in the hindpaw with a von Frey Hair (“VFH”; Stoelting Co.) applying a force of 4, 6.9 or 14.8 grams.
# [2] = tested on: epinephrine-induced hyperalgesia; assay: Epinephrine-induced mechanical hyperalgesia, paw withdrawal threshold (Ugo Basile Analgesimeter); assay type: in vivo, rat; details: for Effect on epinephrine-induced hyperalgesia: rat hindpaw, intradermal, mechanical stimulus; for Percentage decrease in nociceptive threshold in response to epinephrine: epinephrine 100 ng, DAMGO, SQ22536, BIM, Rp-cAMPs 1 μg, WIPTIDE 0.1 μg, larger value = more hyperalgesia
# Method: The roles of PKC, protein kinase A (“PKA”) and the μ-opioid receptor in mediating epinephrine-induced hyperalgesia were assessed by measuring the effects of: Rp-adenosine 3′, 5′-cyclic monophosphate (“Rp-cAMPs”) and WIPTIDE, both inhibitors of PKA; SQ22536, an inhibitor of adenylyl cyclase, an enzyme activated by PKA; bisindolymaleimide (“BIM”), a nonselective inhibitor of PKC isozymes; and [D-Ala^2, N-Me-Phe^4, Gly^5-ol]-enkephalin (“DAMGO”), μ-opioid receptor agonist. The dose for each inhibitor was 1 μg, except for WIPTIDE, which was administered in a 100 ng dose.
# [3] = tested on: tetrodotoxin-resistant sodium current (TTX-RINa); assay type: cell-based, rat; details: for Effect on epinephrine-induced potentiation of TTX-RINa: 1 μM epinephrine, propranolol 2 μM, phentolamine 5 μM, Rp-cAMPs 100 μM, BIM 100 μM
# [4] = tested on: isoproterenol-induced hyperalgesia; assay: Isoproterenol-induced mechanical hyperalgesia, paw withdrawal threshold; assay type: in vivo, rat; details: for Effect on isoproterenol-induced hyperalgesia: rat hindpaw, intradermal
# [5] = tested on: small diameter DRG neurons; assay: Current-clamp (perforated-patch whole-cell) excitability of cultured DRG neurons; assay type: cell-based, rat
# [6] = tested on: formalin-induced hyperalgesia; details: earlier studies; cited from earlier work
# [7] = similar dose, normal rat, earlier studies; cited from earlier work
# [8] = tested on: PGE2-induced hyperalgesia; details: earlier studies; cited from earlier work
# [9] = tested on: PGE2-induced hyperalgesia; details: PGE2 100 ng; inhibitor 1 μg; data from Khasar 1995 or Taiwo and Levine 1991; cited from earlier work
# [10] = Rotorod analysis of motor deficits; assay type: in vivo, rat; details: vincristine 100 μg/kg intravenously daily
# Method: (§1) Humans undergoing chemotherapy frequently experience hyperalgesia. Vincristine is a chemotherapeutic drug known to cause such hyperalgesia, and a rat model of vincristine-induced hyperalgesia was established as follows. Vincristine (100 μg/kg in saline; Sigma Chemical Catalog) was administered intravenously daily to each of 32 rats over a period of two weeks.
# [11] = tested on: vincristine-induced hyperalgesia; assay: Vincristine-induced hyperalgesia, mechanical stimuli (Ugo Basile analgesymeter); assay type: in vivo, rat; details: vincristine 100 μg/kg intravenously daily, after the second day
# Method: as §1
# To determine whether administration of an inhibitor of PKCε would lessen vincristine-induced hyperalgesia in the rat model described above, on the 13th day of vincristine treatment, rats received no treatment (n=16) or intradermal injections of sterile water followed by intradermal injections of either 1 μg εV1-2, a PKCε inhibitory peptide (n=8; labeled “PKCεI” on FIG. 12A), or 1 μg S-VεV1-2, a scrambled version of the εV1-2 peptide (n=8; labeled “PCKεI SCR” on FIG. 12A), 20-30 minutes before administration of a mechanical stimulus.
# [12] = tested on: PGE2-induced hyperalgesia; assay: PGE2-induced mechanical hyperalgesia, paw withdrawal threshold; assay type: in vivo, rat; details: PGE2 100 ng; for Effect on PGE2-induced hyperalgesia: rat hindpaw, mechanical stimulus
# Method: The roles of PKC, protein kinase A (“PKA”) and the μ-opioid receptor in mediating epinephrine-induced hyperalgesia were assessed by measuring the effects of: Rp-adenosine 3′, 5′-cyclic monophosphate (“Rp-cAMPs”) and WIPTIDE, both inhibitors of PKA; SQ22536, an inhibitor of adenylyl cyclase, an enzyme activated by PKA; bisindolymaleimide (“BIM”), a nonselective inhibitor of PKC isozymes; and [D-Ala^2, N-Me-Phe^4, Gly^5-ol]-enkephalin (“DAMGO”), μ-opioid receptor agonist. The dose for each inhibitor was 1 μg, except for WIPTIDE, which was administered in a 100 ng dose. DAMGO was co-injected with epinephrine whereas the other inhibitors were applied 15 minutes prior to epinephrine injection.
# For mechanical nociceptive testing, the nociceptive flexion reflex was quantified using an Ugo Basile analgesymeter that applies a constantly increasing force measured in grams (Stoelting, Chicago, Ill.; K. O. Aley, J. D. Levine, J. Neurosci. 17, 8018-23 (1997)). The mean basal mechanical threshold for rats used in these experiments was 105.3+/−2.8 grams. The effects of hyperalgesia-inducing agents epinephrine (100 ng) and PGE2 (100 ng) on mechanical nociceptive thresholds were determined by measuring paw withdrawal frequencies at 15, 20, and 25 minutes after administration of the hyperalgesic agent and then calculating the mean of these three readings.
# [13] = tested on: carrageenan-induced hyperalgesia; assay: Carrageenan-induced acute hyperalgesia, mechanical stimuli; assay type: in vivo, rat; details: 1 μg injected at the same time as carrageenan
# Method: The acetic acid writhing experiments reported in Example 3 indicate that PKCε contributes to inflammatory pain. To investigate whether PKCε mediates hyperalgesia induced by other inflammatory agents, rats received intradermal 10 μl injections of a 1% solution of carrageenan, a potent irritant (Ferreira, S. H. et al, Nature 334, 698-700 (1988)) and three and a half hours later, the rats received no treatment (n=12; labeled “Car-4” on FIG. 13) or intradermal injections of sterile water followed by intradermal injections of either 1 μg εV1-2, a PKCε inhibitory peptide (n=6; labeled “εV” on FIG. 13), or 1 μg S-VεV1-2, a scrambled version of the εV1-2 peptide (n=6; labeled “S-εV” on FIG. 13).
# To examine whether protein kinase C modulates the processes by which a brief inflammatory event causes prolonged hyperalgesia many days later, rats received carrageenan and 1 μg BIM injections at the same time. Hyperalgesia was measured 72 hours later, when the rats were treated PGE2. […] Therefore, administration of an inhibitor of PKC either at approximately the same time as the inflammatory agent giving rise to chronic, prolonged hyperalgesia or at about the same time as the hyperalgesia-inducing stimulus can lessen such chronic hyperalgesia.
# [14] = tested on: prolonged PGE2-induced hyperalgesia; assay: Prolonged hyperalgesia in carrageenan-sensitized rats (chronic inflammatory pain model); assay type: in vivo, rat; details: 1 μg at the same time as carrageenan; PGE2 72 or more hours later
# Description: In order to investigate the role, if any, of PKCε in chronic inflammatory pain, the following model system for chronic inflammatory pain was developed. Rats received intradermal hind paw injections of carrageenan, an inflammatory agent. […] This was considered an acute response to the carrageenan-induced inflammation. Although administration of Prostaglandin E2 (“PGE2”), 5-hydroxytryptamine (“5-HT,” serotonin) or CGS-21680 (an adenosine A2-selective receptor agonist) normally causes untreated rats (that is, rats that have not received carrageenan injections) to experience hyperalgesia lasting up to 6 hours, the hyperalgesia experienced by carrageenan-sensitized rats following administration of any one of these substances lasted up to 24 hours.
# The prolonged PGE2-induced hyperalgesia normally seen in carrageenan-sensitized rats was inhibited by administration of BIM or εV1-2.
# To examine whether protein kinase C modulates the processes by which a brief inflammatory event causes prolonged hyperalgesia many days later, rats received carrageenan and 1 μg BIM injections at the same time. Hyperalgesia was measured 72 hours later, when the rats were treated PGE2. […]
# [15] = tested on: diabetes-induced hyperalgesia; assay: Streptozotocin diabetes-induced hyperalgesia, mechanical stimuli; assay type: in vivo, rat; details: 1 μg intradermal after sterile water, four weeks after streptozotocin 70 mg/kg
# Method: Persons with uncontrolled or poorly controlled diabetes frequently experience hyperalgesia. The role of PKCε in diabetic neuropathy was examined in a model of diabetes in which male Sprague-Dawley rats receive subcutaneous injection of streptozotocin (70 mg/kg), a pancreatic β-cell toxin. These rats display hyperglycemia and glucosuria within 24 hours after the injection and show decreased nociceptive thresholds in response to mechanical stimuli administered by Ugo Basile analgesymeter in the hind paw after one week (Ahlgren, S. C. et al, J. Neurophysiology, 68, 2077-2085 (1992); Ahlgren, S. C. and Levine, J. D., Neuroscience 52, 1049-1055 (1993)). Four weeks after the streptozotocin injection, each rat received no treatment (n=8) or an intradermal injection of sterile water followed by a intradermal injections of (1) 1 μg bisindolymaleimide, a protein kinase C inhibitor (n=4; labeled “BIM” on FIG. 12B), (2) 1 μg εV1-2, a PKCε inhibitory peptide (n=8; labeled “PKCεI” on FIG. 12B), or (3) 1 μg S-VεV1-2, a scrambled version of the εV1-2 peptide (n=4; labeled “PCKεI SCR” on FIG. 12B) and were subsequently exposed to mechanical stimuli.
# [16] = 10 μM propranolol 30 seconds prior to and with 1 μM epinephrine
# [17] = after 1 μg epinephrine injection
compound,measurement,setting,value
"CCCCC[C@H](O)/C=C/[C@H]1[C@H](O)CC(=O)[C@@H]1C/C=C\CCCC(=O)O [PGE2, prostaglandin E2]",Percent-withdrawal response to VFH stimulus,[1],dramatically increased
COc1ccc2c(c1)c(CC(=O)O)c(C)n2C(=O)c1ccc(Cl)cc1 [indomethacin],Effect on epinephrine-induced hyperalgesia,[2],Neither indomethacin treatment nor sympathectomy had any effect
"Nc1ncnc2c1ncn2[C@@H]1O[C@@H]2CO[P@@](O)(=S)O[C@H]2[C@H]1O [Rp-cAMPs, Rp-adenosine 3′, 5′-cyclic monophosphate]",Effect on epinephrine-induced potentiation of TTX-RINa,[3],abolished
CC(C)NCC(O)COc1cccc2ccccc12 (stereo not shown) [propranolol],Effect on epinephrine-induced potentiation of TTX-RINa,[3],eliminated this potentiation
same,Effect on isoproterenol-induced hyperalgesia,[4],significantly attenuated
same,Effect on epinephrine-induced hyperalgesia,[2],significantly attenuated
same,First-spike latency after epinephrine addition,[5]; [16],233 ± 10 ms
same,Spike number after epinephrine addition,[5]; [16],1.3±0.2
same,Effect on epinephrine-induced increase in spike number and decrease in first-spike latency,"[5]; 10 μM propranolol, 1 μM epinephrine",abolished
Cc1ccc(N(CC2=NCCN2)c2cccc(O)c2)cc1 [phentolamine],Effect on formalin-induced hyperalgesia,[6],significantly reversed
same,Effect on basal paw threshold,[7],no effect
same,Effect on epinephrine-induced hyperalgesia,[2],did not significantly affect
same,Effect on the ability of rolipram to prolong PGE2-induced hyperalgesia,[8],inhibited
Nc1ncnc2c1ncn2C1CCCO1 (stereo not shown) [SQ22536],Percentage decrease in nociceptive threshold in response to PGE2,[9],10.0 ± 2.9 %
same,Percentage decrease in nociceptive threshold in response to epinephrine,[2],9.5 ± 2.4 %
CC[C@]1(O)C[C@H]2CN(CCc3c([nH]c4ccccc34)[C@@](C(=O)OC)(c3cc4c(cc3OC)N(C=O)[C@H]3[C@@](O)(C(=O)OC)[C@H](OC(C)=O)[C@]5(CC)C=CCN6CC[C@]43[C@@H]65)C2)C1 [Vincristine],Motor deficits,[10],did not show any significant motor deficits
same,Effect on mechanical nociceptive thresholds,[11],acute dose-dependent decrease
WIPTIDE,Effect on PGE2-induced hyperalgesia,[12],significantly attenuated
same,Effect on isoproterenol-induced hyperalgesia,[4],almost completely abolished
"CC(C)NCC(O)c1ccc(O)c(O)c1 (stereo not shown) [Isoproterenol, isoproterenol]",Hyperalgesia produced in the absence of epinephrine,[4]; intradermal injection,dose-dependent hyperalgesia
same,Percentage decrease in nociceptive threshold in response to isoproterenol alone,[4]; isoproterenol 100 ng alone,25.8 ± 0.9%
"CN(C)CCCn1cc(C2=C(c3c[nH]c4ccccc34)C(=O)NC2=O)c2ccccc21 [BIM, bisindolymaleimide I]",Effect on acute hyperalgesia induced by carrageenan,[13],attenuated
same,Effect on epinephrine-induced potentiation of TTX-RINa,[3],significantly decreased
same,Percentage decrease in nociceptive threshold in response to PGE2,"[12]; BIM 1 μg, WIPTIDE 0.1 μg",33.4 ± 4.1%
same,Effect on PGE2-induced hyperalgesia,[12],no effect
same,Effect on prolonged hyperalgesia on PGE2 treatment after carrageenan,[14],attenuated
same,Effect on diabetes-induced decrease in nociceptive threshold,[15],somewhat greater reduction in the percentage decrease in nociceptive threshold than PKCε I; also recorded: markedly reduced
same,Percentage decrease in nociceptive threshold in response to isoproterenol,"[4]; isoproterenol 100 ng, BIM 1 μg, WIPTIDE 0.1 μg",7.1 ± 2.4 %
same,Effect on isoproterenol-induced hyperalgesia,[4],significantly attenuated
same,Percentage decrease in nociceptive threshold in response to epinephrine,[2],4.6 ± 2.1 %
same,Effect on epinephrine-induced hyperalgesia,[2],inhibits epinephrine-induced hyperalgesia to a similar extent as εV1-2
"CNC[C@H](O)c1ccc(O)c(O)c1 [Epinephrine, epinephrine]",Effect on TTX-RINa,[3]; epinephrine 1 μM,marked potentiation
same,Percent-withdrawal response to VFH stimulus,[1],dramatically increased
same,Duration of hyperalgesia,[2]; [17],approximately 2 hours
same,Onset latency of hyperalgesia (significant),[2]; [17],2 min
same,Time to peak hyperalgesic effect,[2]; [17],≤ 5 min
same,Effect on paw withdrawal threshold,"[2]; intradermal 1 ng to 1 μg, dorsal hindpaw",dose-dependent decrease
